# What was measured:
# [1] = system: patients with osteoarthritis; conditions: dosages 5, 15, 35 and 50 mg; cited from earlier work
# [2] = system: patients with acute painful knee osteoarthritis (OA); assay: McGill Pain Questionnaire; assay type: in vivo; conditions: mean ± SD
# Text: (§1) The aim of this randomized, double-blind, placebo-controlled study was to assess the efficacy of intravenous neridronate in controlling pain in patients with acute painful knee osteoarthritis (OA).
# (§2) From March 2013 to January 2014, 96 patients older than 50 years and with a recent onset of knee pain were screened. These patients came from the orthopedic and rheumatologic outpatients services and the emergency department of a tertiary care center devoted to bone and joint diseases. […]
# (§3) Primary outcome of the study was the assessment and comparison of changes in pain intensity between the sodium neridronate group and the placebo group along the study. Pain in the affected knee was measured by VAS (0-100) at day 1 (T0), at the day of the last infusion (day 10; T1) and 50 days later (T2). […] As additional endpoint, changes in WORMS score before the treatment and at T2 have been measured.
# [3] = system: patients with acute painful knee osteoarthritis (OA); assay: WOMAC pain questionnaire; assay type: in vivo; conditions: mean ± SD
# Text: as §1, §2, §3
# [4] = system: patients with acute painful knee osteoarthritis (OA); assay: SF-36 questionnaire (functional status); assay type: in vivo; conditions: mean ± SD
# Text: as §1
# (§4) From March 2013 to January 2014, 96 patients older than 50 years and with a recent onset of knee pain were screened. These patients came from the orthopedic and rheumatologic outpatients services and the emergency department of a tertiary care center devoted to bone and joint diseases. Sixty-eight patients were considered eligible to be recruited when they met the following inclusion criteria: 1) knee OA fulfilling the American College of Rheumatology diagnostic criteria; 2) a radiographic Kellgren-Lawrence grading score ≥2 in the tibiofemoral joint; 3) a continuous knee pain by at least 2 weeks with an onset no longer than three months; 4) a pain intensity greater than 30 mm on a Huskisson's visual analog scale ranging from 0 (no pain) to 100 mm (maximal pain); 5) a knee MR scan showing large (>1 cm according to international criteria) BMLs. […] At the time of recruitment, 58 patients out of 68 (85.3%) were taking or had taken drugs to control pain in the previous three months. The patients were asked not to take any analgesics or nonsteroidal anti-inflammatory drugs (NSAIDs) throughout the study period. All patients gave written consent. The study was approved by the Ethics Committee of the hospital where the study was carried out.
# (§5) After enrolment, patients were randomized to receive placebo or sodium neridronate (Abiogen, Pisa, Italy) 100 mg/8 ml in vials with an identical appearance in a 1:1 ratio. Both sodium neridronate and placebo were diluted in 500 ml of saline isotonic solution and infused in the morning for over 2 hours. The treatment was administered every third day four times starting from day 1 (first infusion) and ending on day 10 (fourth infusion). Throughout the infusion course, serum calcium was assayed before each infusion. The values were adjusted for albumin value of 4.2 g/dL. After 60 days (57-66) from the first infusion, the last clinical assessment was performed. Two months after the end of the study, patients were interviewed by telephone about a possible relapse of pain and the possible resumption of analgesic drugs and/or NSAIDs.
# as §3
# [5] = system: subchondral BMLs in patients with painful knee OA; assay: Knee MRI, WORMS score for bone marrow edema; assay type: in vivo; conditions: mean ± SD
# Experimental: as §5
# High resolution, three-dimensional MRI of the target knee was obtained for each patient before the start of the treatment (1-7 days) and at the end of the study (day 58-69). All MR images were evaluated by a skilled musculoskeletal radiologist who was blinded to the patient's treatment. All MR examinations were performed with a 1.5 T scanner (Magnetom Espree, Siemens) using a dedicated knee coil. Imaging was performed on sagittal, coronal and transverse planes, with a field of view (FOV) of 18 cm and a matrix of acquisition of 256×256. The MR protocol included: spin echo (SE) T1-weighted sequences (repetition time TR 580 ms, echo time TE 12 ms, number of signal averages 2, thickness 3.0 mm, intersection gap 0.5 mm) on sagittal, coronal and transverse planes; SE T2-weighted sequences (TR 4.000 ms, TE 30/100 ms, one signal acquired, thickness 3.0 mm, intersection gap 0.5 mm) on sagittal and transverse planes; PD-weighted sequence with fat/suppression (TR 2800 ms, TE 40 ms, one signal acquired, thickness 3.0 mm, intersection gap 0.5 mm) on coronal plane. Subchondral BMLs were identified as areas of increase signal intensity on fat-suppressed T2-weighted images. Scores were assigned using the Whole-Organ MRI score for knee OA (WORMS) for bone marrow edema. […] For each subregion, the extent of the lesion was assessed following the WORMS scale: 0=absence of edema; 1=less than 25%; 2=25-50%; 3=>50%.
# as §3
# [6] = system: patients with acute painful knee osteoarthritis (OA); assay: Pain in the affected knee by VAS (0-100), randomized double-blind placebo-controlled study; assay type: in vivo; conditions: mean ± SD
# Text: as §1, §4, §5
# Primary outcome of the study was the assessment and comparison of changes in pain intensity between the sodium neridronate group and the placebo group along the study. Pain in the affected knee was measured by VAS (0-100) at day 1 (T0), at the day of the last infusion (day 10; T1) and 50 days later (T2). As secondary endpoints, the following clinical assessments were performed: the Western Ontario and MacMaster Universities Osteoarthritis Index (WOMAC) pain questionnaire; the McGill Pain Questionnaire and the 36-Item Short Form Health Survey (SF-36) questionnaire to assess the patient's functional status. All these instruments were administered at T0 and T2. As additional endpoint, changes in WORMS score before the treatment and at T2 have been measured.
# [7] = system: patients with acute painful knee osteoarthritis (OA); assay: Telephone interview on resumption of analgesic drugs and/or NSAIDs; assay type: in vivo; conditions: two months after the last clinical evaluation; 4 patients out of 31
# Experimental: as §5
# [8] = system: patients with acute painful knee osteoarthritis (OA); assay: Adverse events during the infusion course; assay type: in vivo; conditions: one patient, after the first infusion
# Experimental: as §5
# Fifty-six patients completed the study. […] Eight patients in the placebo group were excluded for the resumption of analgesic or NSAIDs treatment during the study (7 patients) and one patient refused to return to be evaluated 50 days after the treatment. […]
# [9] = 50 days after the end of treatment (T2), N = 31
SMILES,efficacy of treatment in pain symptoms versus placebo [1],"McGill [2, 9]","McGill ([2]; baseline (T0), N = 34)","WOMAC [3, 9]","WOMAC ([3]; baseline (T0), N = 34)","SF-36 mental component [4, 9]","SF-36 physical component [4, 9]","SF-36 mental component ([4]; baseline (T0), N = 34)","SF-36 physical component ([4]; baseline (T0), N = 34)","WORMS score ([5]; T2, MRI at the end of the study, N = 31)","WORMS score ([5]; T2, MRI at the end of the study, N = 31, listed as Neridronate)","WORMS score ([5]; baseline, MRI before the start of treatment, N = 34)","WORMS score ([5]; baseline, MRI before the start of treatment, N = 34, listed as Neridronate)","VAS score ([6]; 50 days after the end of treatment (T2), 100 mg i.v. x4, N = 31)","VAS score ([6]; 50 days after the end of treatment (T2), 100 mg i.v. x4, N = 31, listed as Neridronate)","VAS score ([6]; baseline (day 1, T0), before treatment, N = 34)","VAS score ([6]; baseline (day 1, T0), before treatment, N = 34, listed as Neridronate)","VAS score ([6]; day of the last infusion (day 10, T1), 100 mg i.v. on days 1, 4, 7, 10)",patients who had resumed symptomatic therapy with analgesic drugs or NSAIDs [7] [%],adverse event leading to withdrawal of consent [8]
O=P(O)(O)C(O)(Cc1cccnc1)P(=O)(O)O [risedronate],it was not possible to find any difference,–,–,–,–,–,–,–,–,–,–,–,–,–,–,–,–,–,–,–
NCCCCCC(O)(P(=O)(O)O)P(=O)(O)O [sodium neridronate],–,3.7,14.3 ± 7.6,58,232 ± 79,62.5,51.1,56.1 ± 12.4,36.6 ± 10.2,3.7±4.2,3.7,6.3±3.0,6.3 ± 3.0,9.4±10.8,9.4,59.0±14.7,59.0 ± 14.7,30.4±15.6,12.9,acute phase reaction
